The text below walks through data of patent US20110098300A1, “Compounds Comprising A Cyclobutoxy Group” (UCB PHARMA, S.A., priority 2008, published 2011).

Take `O=C(c1ccc(O[C@H]2C[C@H](N3CCCCC3)C2)cc1)N1CCS(=O)(=O)CC1` [Compound 8, 4-{4-[(trans-3-piperidin-1-ylcyclobutyl)oxy]benzoyl}thiomorpholine 1,1-dioxide]: the melting point (as a rule, the temperature of the solid-liquid transition) was 186.5 to 186.9 °C.
As to `O=C(NCC(F)(F)F)c1ccc(O[C@H]2C[C@H](N3CCCCC3)C2)cc1` [Compound 13, 4-[(trans-3-piperidin-1-ylcyclobutyl)oxy]-N-(2,2,2-trifluoroethyl)benzamide], the melting point lay within 152.9 to 153.4 °C.
`CC(C)N1CCN(C(=O)c2ccc(O[C@H]3C[C@H](N4CCCCC4)C3)cc2)CC1` [Compound 4, 1-isopropyl-4-{4-[(trans-3-piperidin-1-ylcyclobutyl)oxy]benzoyl}piperazine] returned a melting point of 98.5 to 99 °C.
`O=C(c1ccc(O[C@H]2C[C@H](N3CCCCC3)C2)cc1)N1CCC(F)(F)C1` [Compound 9, 1-(trans-3-{4-[(3,3-difluoropyrrolidin-1-yl)carbonyl]phenoxy}cyclobutyl)piperidine] came in with a melting point of 115.2 to 115.8 °C.
Under `O=C(c1ccc(O[C@H]2C[C@H](N3CCCCC3)C2)cc1)N1CCC(F)(F)CC1` [Compound 2, 4,4-difluoro-1-{4-[(trans-3-piperidin-1-ylcyclobutyl)oxy]benzoyl}piperidine] stands 145 to 146 °C.
Under `CC(=O)N1CCN(C(=O)c2ccc(O[C@H]3C[C@H](N4CCCCC4)C3)cc2)CC1` [Compound 10, 1-acetyl-4-{4-[(trans-3-piperidin-1-ylcyclobutyl)oxy]benzoyl}piperazine] stands 159.2 to 159.8 °C; under `O=C(c1ccc(O[C@H]2C[C@H](N3CCCCC3)C2)cc1)N1CCCCC1` [Compound 3, 1-{trans-3-[4-(piperidin-1-ylcarbonyl)phenoxy]cyclobutyl}piperidine], 101.1 to 102.2 °C.
`O=C(c1ccc(O[C@H]2C[C@H](N3CCCCC3)C2)cc1)N1CCC(O)CC1` [Compound 5, 1-{4-[(trans-3-piperidin-1-ylcyclobutyl)oxy]benzoyl}piperidin-4-ol]: the melting point was in the range of 57.4 to 57.8 °C.
In turn, `O=C(c1ccc(O[C@H]2C[C@H](N3CCCCC3)C2)cc1)N1CC(O)C1` [Compound 11, 1-{4-[(trans-3-piperidin-1-ylcyclobutyl)oxy]benzoyl}azetidin-3-ol] yielded a melting point of 82.2 to 82.4 °C.
Under `O=C(Nc1cnccc1Cl)c1ccc(O[C@H]2C[C@H](N3CCCCC3)C2)cc1` [Compound 12, N-(4-chloropyridin-3-yl)-4-[(trans-3-piperidin-1-ylcyclobutyl)oxy]benzamide] stands 151.6 °C; under `O=C(c1ccc(O[C@H]2C[C@H](N3CCCCC3)C2)cc1)N1CCOCC1` [Compound 1, 4-{4-[(trans-3-piperidin-1-ylcyclobutyl)oxy]benzoyl}morpholine], 135 to 136 °C.
